Laboratory results published in US9745261B2, “Inhibitors of the MITF molecular pathway” (THE GENERAL HOSPITAL CORPORATION, priority 2013, dated 2017).
pEC50: −log10 of the molar value.

Assays:
SK-MEL-5 cells = test: SK-MEL-5 cell cytotoxicity assay (CellTiter-Glo); format: cell-based, human; settings: Homo sapiens, SK-MEL-5; 24 hours, CellTiter-Glo; read-out: Target Potency IC50 (μM) SKMEL5
Protocol: SK-MEL-5 cells were treated with compounds for 24 hours, and then cell viability was measured using the CellTiter-Glo Assay (Promega), a luciferase-based reagent that measures cellular ATP levels. The compounds were tested at different concentrations to determine IC50 values. Compounds that were active in the primary assay and toxic below 30 μM at 24 hours were considered for probe development. Data were normalized against DMSO in Genedata Screener's Assay Analyzer.
SK-MEL-5 cells were maintained in DMEM (10% FBS, 1% Pen-Strep-Glutamine). Cells were fluid changed every 3 days and/or split upon reaching 100% confluency. For secondary assays, cells were thawed at 4 million cells per Falcon T175 flask. After 3 days, the cells were fluid changed, after 3 more days cells were passed to a Corning Triple flask (10-15 million cells) and plated after 3 days in the triple flask.
Day 1 • 1. Plate SK-MEL-5 cells at 3,000 per well in 30 uL media (phenol red free DMEM/10% Fetal Bovine Serum/Penicillin/Streptomycin/L-Glutamine) • 2. Use Corning white 384-well, square, opaque-bottomed plates (Corning Catalog No. 8867BC)
Day 2 • 3. Pin 100 nL compound/DMSO solution (Cybi Well) into assay plates. (For HTS, required sentinel pinning with the positive control, parthenolide (6 mM)) • 4. […]
Day 3 • 5. […] Read on the Perkin-Elmer EnVision plate reader with luminescence (LUM) settings for 0.1 sec per well. […]

MITF = test: qPCR assay for MITF expression in SK-MEL-5 cells; format: cell-based; settings: Homo sapiens; SK-MEL-5 melanoma cells, up to 35 μM
Protocol: SK-MEL-5 cells were treated with compounds for 24 hours. Next, cells were lysed with DNase I (Ambion, from Cell to CT Lysis Mix). Lysed cells were delivered to a RT-PCR plate (Ambion, Cells to CT RT Mix) and the plates were then processed for reverse transcription to create cDNA. qPCR was performed by transferring cDNA from the RT-PCR plate to a qPCR plate containing PCR master mix (Roche, Probes Master), FAM Taqman probe/primer set for the target gene (human MITF, Applied Biosystem, 4331182 Hs01117294_m1), VIC Taqman probe/primer set for a house keeping gene (human GAPDH, Applied Biosystems C10228) and water. qPCR plates were cycled using a real-time PCR instrument (Roche, Light Cycler). Using the instrument software, a cycle call was generated when each well enters log phase amplification (Ct). The delta Ct value was determined by subtracting the Ct value of the control gene (GAPDH) from the Ct value of the target gene (MITF) in each well. The delta delta Ct value of each compound treatment was determined by averaging the delta Ct values of the mock well on each plate and subtracting that average from the delta Ct value of each compound well. […]
• 10. […] The RT assay plates are incubated at 37° C. for 1 hour and the reverse transcriptase is inactivated by incubating the plates for 1 minute at 95° C. • 13. cDNA is stored at −80° C. until ready for qPCR analysis […]

Cannabinoid CB1 = molecular target: T1, Cannabinoid CB1 (Homo sapiens, UniProt P21554); test: Radioligand binding, Cannabinoid CB1
T1 construct: Eurofins Panlabs, Inc. (contract assay)

Dopamine D1 = molecular target: T2, Dopamine D1 (Homo sapiens, UniProt P21728); test: Radioligand binding, Dopamine D1
T2 construct: Eurofins Panlabs, Inc. (contract assay)

Adrenergic α1A = molecular target: T3, Adrenergic α1A (Rattus norvegicus, UniProt P43140); test: Radioligand binding, Adrenergic α1A
T3 construct: Eurofins Panlabs, Inc. (contract assay) 203100 (assay number)

Adenosine A2A = molecular target: T4, Adenosine A2A (Homo sapiens, UniProt P29274); test: Radioligand binding, Adenosine A2A
T4 construct: Eurofins Panlabs, Inc. (contract assay) 200610 (assay number)
T4 sequence (P29274 whole entry): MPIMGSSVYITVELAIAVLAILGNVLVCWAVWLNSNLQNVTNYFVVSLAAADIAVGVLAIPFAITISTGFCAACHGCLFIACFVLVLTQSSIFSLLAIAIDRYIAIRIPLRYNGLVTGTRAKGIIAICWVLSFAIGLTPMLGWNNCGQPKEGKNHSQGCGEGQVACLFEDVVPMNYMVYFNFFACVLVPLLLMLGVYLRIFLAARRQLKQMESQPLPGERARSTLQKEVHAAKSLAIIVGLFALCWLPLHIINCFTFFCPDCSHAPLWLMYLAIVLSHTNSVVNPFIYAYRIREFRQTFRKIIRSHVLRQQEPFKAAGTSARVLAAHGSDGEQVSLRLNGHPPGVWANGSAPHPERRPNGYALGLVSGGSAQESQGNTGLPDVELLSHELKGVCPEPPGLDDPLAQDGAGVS

T3 sequence (P43140 whole entry): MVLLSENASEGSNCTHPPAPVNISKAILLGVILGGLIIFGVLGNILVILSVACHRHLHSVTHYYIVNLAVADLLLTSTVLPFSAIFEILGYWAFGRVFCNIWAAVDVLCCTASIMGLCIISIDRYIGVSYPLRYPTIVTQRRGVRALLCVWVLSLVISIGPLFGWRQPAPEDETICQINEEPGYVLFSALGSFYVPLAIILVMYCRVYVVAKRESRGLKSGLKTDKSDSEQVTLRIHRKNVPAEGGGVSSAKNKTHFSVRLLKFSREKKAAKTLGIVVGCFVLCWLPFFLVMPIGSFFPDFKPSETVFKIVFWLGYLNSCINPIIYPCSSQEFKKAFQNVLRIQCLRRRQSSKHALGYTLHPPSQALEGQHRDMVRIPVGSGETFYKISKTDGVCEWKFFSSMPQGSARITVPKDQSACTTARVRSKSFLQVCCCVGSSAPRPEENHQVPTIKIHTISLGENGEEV
T1 sequence (P21554 whole entry): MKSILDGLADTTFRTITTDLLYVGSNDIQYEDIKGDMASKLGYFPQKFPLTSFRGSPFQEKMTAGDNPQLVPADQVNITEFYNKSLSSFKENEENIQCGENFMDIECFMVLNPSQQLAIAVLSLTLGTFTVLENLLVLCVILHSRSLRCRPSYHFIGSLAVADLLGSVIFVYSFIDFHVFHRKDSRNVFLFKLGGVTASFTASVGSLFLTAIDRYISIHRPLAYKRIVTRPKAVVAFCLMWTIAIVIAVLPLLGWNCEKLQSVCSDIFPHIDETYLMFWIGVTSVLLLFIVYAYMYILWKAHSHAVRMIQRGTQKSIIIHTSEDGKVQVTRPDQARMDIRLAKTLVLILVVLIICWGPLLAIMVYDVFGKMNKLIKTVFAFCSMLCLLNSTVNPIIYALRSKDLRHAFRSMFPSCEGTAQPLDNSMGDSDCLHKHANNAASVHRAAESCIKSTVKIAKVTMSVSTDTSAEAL
T2 sequence (P21728 whole entry): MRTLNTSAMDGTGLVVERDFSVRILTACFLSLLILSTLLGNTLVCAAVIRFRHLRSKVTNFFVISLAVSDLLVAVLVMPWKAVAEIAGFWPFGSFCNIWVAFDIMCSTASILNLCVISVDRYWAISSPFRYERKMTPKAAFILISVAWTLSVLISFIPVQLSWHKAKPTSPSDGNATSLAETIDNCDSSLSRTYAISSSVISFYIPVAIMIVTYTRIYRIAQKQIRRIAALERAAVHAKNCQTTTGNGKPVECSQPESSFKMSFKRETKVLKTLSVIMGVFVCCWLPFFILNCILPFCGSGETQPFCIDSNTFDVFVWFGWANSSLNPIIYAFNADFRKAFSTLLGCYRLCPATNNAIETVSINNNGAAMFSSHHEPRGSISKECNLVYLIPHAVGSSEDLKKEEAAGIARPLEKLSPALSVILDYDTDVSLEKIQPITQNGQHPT

Row | Compound | IC50 (SK-MEL-5 cells) [µM] | pEC50 (MITF) | inhibition at 10 µM (Cannabinoid CB1) [%] | inhibition at 10 µM (Dopamine D1) [%] | inhibition at 10 µM (Adrenergic α1A) [%] | inhibition at 10 µM (Adenosine A2A) [%]
1 | NS(=O)(=O)c1ccc(NC2=CC(=O)c3ccccc3C2=O)cc1 [4-((1,4-dioxo-1,4-dihydronaphthalen-2-yl)amino)benzenesulfonamide] | 0.75 | 6.80 |  |  |  | 
2 | NS(=O)(=O)c1ccc(NC2=CC(=O)c3ccccc3C2=O)cc1 [Example 1, 4-((1,4-Dioxo-1,4-dihydronaphthalen-2-yl)amino)benzenesulfonamide] |  |  | 31 | 21 | 28 | 50
